Results taken from patent publication US9434743B2, “Indazole derivatives” (TAKEDA PHARMACEUTICAL COMPANY LIMITED, priority 2012, dated 2016).

Columns and labels:
[1] = target: T1, human MetAP2 enzyme (Homo sapiens, UniProt P50579); experiment: MetAP2 enzyme assay, enzyme complexed with cobalt ions; conditions: MetAP2 Co pIC50, MetAP2 enzyme complexed with cobalt ions; Met-AMC substrate at Km
Protocol: DNA encoding the full-length sequence of human MetAP2 enzyme is amplified by PCR and cloned into a pFastBac expression vector (Invitrogen). Recombinant baculovirus incorporating the MetAP2 construct is generated by transposition using the Bac-to-Bac system (Invitrogen). The expression of recombinant protein is carried out by infection of Spodoptera frugiperda Sf9 cells (Invitrogen) in 5 L Wave Bioreactors (Wave Biotech). Recombinant protein is isolated from cellular extracts by binding to an SP Hitrap Fast Flow or SP Sepharose (Sigma) column, and the protein is eluted using a NaCl gradient. Partially purified extracts of MetAP2 are further purified by an AKTA FPLC over a Superdex-200 column (GE). The purity of MetAP2 protein is determined on denaturing SDS-PAGE gel.
The results for each well are expressed as percent inhibition and calculated using the equation:

[2] = target: T1, human MetAP2 enzyme; experiment: MetAP2 enzyme assay, enzyme complexed with manganese ions; conditions: MetAP2 Mn pIC50, MetAP2 enzyme complexed with manganese ions; Met-AMC substrate at Km

T1 sequence (P50579 whole entry): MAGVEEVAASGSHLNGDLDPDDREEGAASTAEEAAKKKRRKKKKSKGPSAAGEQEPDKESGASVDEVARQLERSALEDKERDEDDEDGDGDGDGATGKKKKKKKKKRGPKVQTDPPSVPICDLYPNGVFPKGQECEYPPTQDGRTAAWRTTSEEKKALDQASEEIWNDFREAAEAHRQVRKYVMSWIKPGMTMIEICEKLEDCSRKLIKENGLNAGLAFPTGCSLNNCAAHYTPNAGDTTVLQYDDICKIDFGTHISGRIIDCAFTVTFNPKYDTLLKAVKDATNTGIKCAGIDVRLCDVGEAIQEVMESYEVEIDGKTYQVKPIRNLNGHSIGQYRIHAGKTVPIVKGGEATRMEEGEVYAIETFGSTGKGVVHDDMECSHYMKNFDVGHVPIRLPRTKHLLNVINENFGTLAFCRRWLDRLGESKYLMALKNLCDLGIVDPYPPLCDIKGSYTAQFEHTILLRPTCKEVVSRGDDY

IC50 [1]	IC50 [2]	SMILES
3980 nM	79.4 nM	NC(=O)c1cc(F)ccc1-c1cc(C(F)(F)F)cc2[nH]ncc12 [Example 203, 5-fluoro-2-(6-(trifluoromethyl)-1H-indazol-4-yl)benzamide]
251 nM	12.6 nM	Cc1[nH]cnc1-c1cc(C(F)(F)F)cc2[nH]ncc12 [Example 161, 4-(5-methyl-1H-imidazol-4-yl)-6-(trifluoromethyl)-1H-indazole]
63.1 nM	25.1 nM	FC(F)(F)c1cc(-c2cccc(N3CCOCC3)c2)c2cn[nH]c2c1 [Example 57, 4-(3-(6-(trifluoromethyl)-1H-indazol-4-yl)phenyl)morpholine]
31.6 nM	5.01 nM	Nc1ccc(-c2cc(C(F)(F)F)cc3[nH]ncc23)cn1 [Example 16, 5-(6-(trifluoromethyl)-1H-indazol-4-yl)pyridin-2-amine]
2000 nM	126 nM	FC(F)(F)c1cc(-c2cnc3cnccn23)c2cn[nH]c2c1 [Example 152, 3-(6-(trifluoromethyl)-1H-indazol-4-yl)imidazo[1,2-a]pyrazine]
63.1 nM	3.98 nM	COC(=O)c1ccc(-c2cc(C(F)(F)F)cc3[nH]ncc23)cn1 [Example 269, methyl 5-(6-(trifluoromethyl)-1H-indazol-4-yl)picolinate]
39.8 nM	6.31 nM	Cc1ncc(-c2cc(C(F)(F)F)cc3[nH]ncc23)c2cc[nH]c12 [Example 292, 4-(7-methyl-1H-pyrrolo[2,3-c]pyridin-4-yl)-6-(trifluoromethyl)-1H-indazole]
63.1 nM	20 nM	Cc1nn(CC(=O)N2CCOCC2)c(C)c1-c1cc(C(F)(F)F)cc2[nH]ncc12 [Example 317, 2-(3,5-dimethyl-4-(6-(trifluoromethyl)-1H-indazol-4-yl)-1H-pyrazol-1-yl)-1-morpholinoethanone]
25.1 nM	7.94 nM	Cc1nc(N)ccc1-c1cc(C(F)(F)F)cc2[nH]ncc12 [Example 255, 6-methyl-5-(6-(trifluoromethyl)-1H-indazol-4-yl)pyridin-2-amine]
20 nM	15.8 nM	NC(=O)c1ccc(-c2cc(C(F)(F)F)cc3[nH]ncc23)c(F)c1 [Example 321, 3-fluoro-4-(6-(trifluoromethyl)-1H-indazol-4-yl)benzamide]
50.1 nM	15.8 nM	Cc1ccc(C(=O)N2CCC(CO)C2)cc1-c1cc(C(F)(F)F)cc2[nH]ncc12 (stereo not shown) [Example 371, (3-(hydroxymethyl)pyrrolidin-1-yl)(4-methyl-3-(6-(trifluoromethyl)-1H-indazol-4-yl)phenyl)methanone]
100 nM	25.1 nM	CCCOc1ncccc1-c1cc(C(F)(F)F)cc2[nH]ncc12 [Example 134, 4-(2-propoxypyridin-3-yl)-6-(trifluoromethyl)-1H-indazole]
158 nM	12.6 nM	OCCc1cccc(-c2cc(C(F)(F)F)cc3[nH]ncc23)c1 [Example 106, 2-(3-(6-(trifluoromethyl)-1H-indazol-4-yl)phenyl)ethanol]
63.1 nM	6.31 nM	Cc1cnc(N)c(-c2cc(C(F)(F)F)cc3[nH]ncc23)c1 [Example 193, 5-methyl-3-(6-(trifluoromethyl)-1H-indazol-4-yl)pyridin-2-amine]
200 nM	10 nM	O=C(c1ccc(-c2cc(C(F)(F)F)cc3[nH]ncc23)cn1)N1CCOCC1 [Example 262, morpholino(5-(6-(trifluoromethyl)-1H-indazol-4-yl)pyridin-2-yl)methanone]
100 nM	3.16 nM	COc1ncc(-c2cc(C(F)(F)F)cc3[nH]ncc23)cn1 [Example 246, 4-(2-methoxypyrimidin-5-yl)-6-(trifluoromethyl)-1H-indazole]
100 nM	7.94 nM	CN(C)C(=O)c1ccc(-c2cc(C(F)(F)F)cc3[nH]ncc23)cc1 [Example 119, N,N-dimethyl-4-(6-(trifluoromethyl)-1H-indazol-4-yl)benzamide]
200 nM	15.8 nM	FC(F)(F)c1cc(-c2ccncc2Cl)c2cn[nH]c2c1 [Example 49, 4-(3-chloropyridin-4-yl)-6-(trifluoromethyl)-1H-indazole]
50.1 nM	6.31 nM	CNC(=O)c1ccc(F)c(-c2cc(C(F)(F)F)cc3[nH]ncc23)c1 [Example 114, 4-fluoro-N-methyl-3-(6-(trifluoromethyl)-1H-indazol-4-yl)benzamide]
50.1 nM	6.31 nM	FC(F)(F)c1cc(-c2cnc3[nH]c(C(F)(F)F)nc3c2)c2cn[nH]c2c1 [Example 242, 2-(trifluoromethyl)-6-(6-(trifluoromethyl)-1H-indazol-4-yl)-3H-imidazo[4,5-b]pyridine]
50.1 nM	15.8 nM	FC(F)(F)c1cc(-c2cncc3ccccc23)c2cn[nH]c2c1 [Example 111, 4-(6-(trifluoromethyl)-1H-indazol-4-yl)isoquinoline]

IC50 [1]	IC50 [2]	SMILES
631 nM	20 nM	Cn1cc(C(=O)N2CCOCC2)cc(-c2cc(C(F)(F)F)cc3[nH]ncc23)c1=O [Example 314, 1-methyl-5-(morpholine-4-carbonyl)-3-(6-(trifluoromethyl)-1H-indazol-4-yl)pyridin-2(1H)-one]
50.1 nM	6.31 nM	CN1CCN(C(=O)c2cc(-c3cc(C(F)(F)F)cc4[nH]ncc34)cnc2N)CC1 [Example 282, (2-amino-5-(6-(trifluoromethyl)-1H-indazol-4-yl)pyridin-3-yl)(4-methylpiperazin-1-yl)methanone]
63.1 nM	6.31 nM	FC(F)(F)c1cc(-c2ccc3[nH]ncc3c2)c2cn[nH]c2c1 [Example 236, 6-(trifluoromethyl)-1H,1′H-4,5′-biindazole]
20 nM	3.98 nM	FC(F)(F)c1cc(-c2ccc(N3CCOCC3)nc2)c2cn[nH]c2c1 [Example 89, 4-(5-(6-(trifluoromethyl)-1H-indazol-4-yl)pyridin-2-yl)morpholine]
126 nM	12.6 nM	COc1nc(C#N)ccc1-c1cc(C(F)(F)F)cc2[nH]ncc12 [Example 396, 6-methoxy-5-(6-(trifluoromethyl)-1H-indazol-4-yl)picolinonitrile]
15.8 nM	2 nM	O=c1[nH]c2cc(-c3cc(C(F)(F)F)cc4[nH]ncc34)cnc2[nH]1 [Example 241, 6-(6-(trifluoromethyl)-1H-indazol-4-yl)-1H-imidazo[4,5-b]pyridin-2(3H)-one]
794 nM	39.8 nM	Cc1onc(N)c1-c1cc(C(F)(F)F)cc2[nH]ncc12 [Example 166, 5-methyl-4-(6-(trifluoromethyl)-1H-indazol-4-yl)isoxazol-3-amine]
794 nM	20 nM	COc1ccc(-c2cc(C(F)(F)F)cc3[nH]ncc23)c(C(N)=O)n1 [Example 201, 6-methoxy-3-(6-(trifluoromethyl)-1H-indazol-4-yl)picolinamide]
79.4 nM	6.31 nM	OCc1cncc(-c2cc(C(F)(F)F)cc3[nH]ncc23)c1 [Example 29, (5-(6-(trifluoromethyl)-1H-indazol-4-yl)pyridin-3-yl)methanol]
631 nM	12.6 nM	Oc1ncccc1-c1cc(C(F)(F)F)cc2[nH]ncc12 [Example 210, 3-(6-(trifluoromethyl)-1H-indazol-4-yl)pyridin-2-ol]
126 nM	15.8 nM	FC(F)(F)c1cc(-c2cccc3c2OCO3)c2cn[nH]c2c1 [Example 27, 4-(benzo[d][1,3]dioxol-4-yl)-6-(trifluoromethyl)-1H-indazole]
50.1 nM	3.98 nM	Cc1ncsc1-c1cc(C(F)(F)F)cc2[nH]ncc12 [Example 177, 4-methyl-5-(6-(trifluoromethyl)-1H-indazol-4-yl)thiazole]
158 nM	10 nM	CN(C)C(=O)c1cc(F)cc(-c2cc(C(F)(F)F)cc3[nH]ncc23)c1 [Example 115, 3-fluoro-N,N-dimethyl-5-(6-(trifluoromethyl)-1H-indazol-4-yl)benzamide]
79.4 nM	5.01 nM	O=C(c1cc(-c2cc(C(F)(F)F)cc3[nH]ncc23)ccn1)N1CC(O)C1 [Example 385, (3-hydroxyazetidin-1-yl)(4-(6-(trifluoromethyl)-1H-indazol-4-yl)pyridin-2-yl)methanone]
20 nM	3.16 nM	CN1CCN(C(=O)c2cccc(-c3cc(C(F)(F)F)cc4[nH]ncc34)c2)CC1 [Example 84, (4-methylpiperazin-1-yl)(3-(6-(trifluoromethyl)-1H-indazol-4-yl)phenyl)methanone]
631 nM	15.8 nM	C[C@H](O)CNC(=O)c1c[nH]c(=O)c(-c2cc(C(F)(F)F)cc3[nH]ncc23)c1 [Example 335, (S)—N-(2-hydroxypropyl)-6-oxo-5-(6-(trifluoromethyl)-1H-indazol-4-yl)-1,6-dihydropyridine-3-carboxamide]
100 nM	5.01 nM	Nc1ncccc1-c1cc(C(F)(F)F)cc2[nH]ncc12 [Example 78, 3-(6-(trifluoromethyl)-1H-indazol-4-yl)pyridin-2-amine]
15.8 nM	5.01 nM	O=C1Cc2ccc(-c3cc(C(F)(F)F)cc4[nH]ncc34)cc2N1 [Example 239, 6-(6-(trifluoromethyl)-1H-indazol-4-yl)indolin-2-one]
63.1 nM	5.01 nM	Cc1nn(CC(=O)N2CCOCC2)cc1-c1cc(C(F)(F)F)cc2[nH]ncc12 [Example 277, 2-(3-methyl-4-(6-(trifluoromethyl)-1H-indazol-4-yl)-1H-pyrazol-1-yl)-1-morpholinoethanone]
63.1 nM	3.98 nM	NC(=O)c1cc(-c2cc(C(F)(F)F)cc3[nH]ncc23)ccn1 [Example 283, 4-(6-(trifluoromethyl)-1H-indazol-4-yl)picolinamide]
